# Source: patent publication US8354400B2, “Benzoxazole compounds and methods of use” (Eisai R&D Co., Ltd., priority 2008, dated 2013)
# What was measured:
# [1] = test system: serum IL-6 after s.c. oligo CpG 1668 challenge; test: In vivo short term CpG stimulation assay (serum IL-6); design: species or system mice; details: for inhibition in vivo at 20 mg/kg: Mus musculus, po, 2 h, mice, oral in water, s.c. 30 micrograms oligo CpG 1668 within 90 minutes, serum two hours later, repeat assays separated by commas, read-out: Percent short-term IL-6 suppression; for suppression of IL-6 (Table 3): 1.5 hours after oral administration of 20 mg/kg
# Method: Short Term CpG Stimulation Assay: Compounds identified as having potency in the HEK/TLR9 and splenocyte CpG 1668 assays described in Example 9, above, were tested in an in vivo short term CpG stimulation assay. Mice were orally administered compound in water, and challenged within 90 minutes by subcutaneous (s.c.) injection of 30 micrograms of oligo CpG 1668. Two hours later serum was taken and assayed for IL-6 using ELISA analysis. Results from assays repeated on different dates are set forth as multiple numbers separated by commas.
# [2] = test system: mouse spleen IL-6 production in response to Oligo CpG 1668; test: Splenocyte CpG 1668 assay (IL-6 ELISA); format: cell-based; details: mouse splenocytes, Oligo CpG 1668, 72 hrs
# Method: (2) Splenocyte CpG 1668 Assay: Some of the compounds tested in the primary assay were also assayed for suppression of mouse spleen IL-6 production in response to stimulation with Oligo CpG 1668, a synthetic phosphorothioate oligonucleotide (Krieg et al. Nature. 374:546-9 (1995)), with nucleotide sequence [NT] (SEQ ID NO:2). Each compound was added to dissociated splenocytes before addition of stimulatory oligonucleotide. Cells were stimulated in culture for 72 hrs and the supernatant was removed for ELISA analysis of IL-6 level. Here the IC50 is defined as the concentration of compound that suppresses cytokine production to 50% of that observed in the absence of compound, i.e., full stimulation.
# [3] = biological target: T1, human TLR9 (Homo sapiens, UniProt Q9NR96); test: Primary assay: HEK/TLR9 activation (NF-kB luciferase reporter, Oligo CpG 2006 stimulation); format: cell-based; details: HEK293 transfected with human TLR9 and NF-kB luciferase; compound 30 min before Oligo CpG 2006; overnight; read-out: HEK/TLR9 IC50
# T1 construct: expressed in transfected cells; host or cells: HEK293 (ATCC No. CRP-1573 [sic])
# T1 sequence (Q9NR96 26-1032): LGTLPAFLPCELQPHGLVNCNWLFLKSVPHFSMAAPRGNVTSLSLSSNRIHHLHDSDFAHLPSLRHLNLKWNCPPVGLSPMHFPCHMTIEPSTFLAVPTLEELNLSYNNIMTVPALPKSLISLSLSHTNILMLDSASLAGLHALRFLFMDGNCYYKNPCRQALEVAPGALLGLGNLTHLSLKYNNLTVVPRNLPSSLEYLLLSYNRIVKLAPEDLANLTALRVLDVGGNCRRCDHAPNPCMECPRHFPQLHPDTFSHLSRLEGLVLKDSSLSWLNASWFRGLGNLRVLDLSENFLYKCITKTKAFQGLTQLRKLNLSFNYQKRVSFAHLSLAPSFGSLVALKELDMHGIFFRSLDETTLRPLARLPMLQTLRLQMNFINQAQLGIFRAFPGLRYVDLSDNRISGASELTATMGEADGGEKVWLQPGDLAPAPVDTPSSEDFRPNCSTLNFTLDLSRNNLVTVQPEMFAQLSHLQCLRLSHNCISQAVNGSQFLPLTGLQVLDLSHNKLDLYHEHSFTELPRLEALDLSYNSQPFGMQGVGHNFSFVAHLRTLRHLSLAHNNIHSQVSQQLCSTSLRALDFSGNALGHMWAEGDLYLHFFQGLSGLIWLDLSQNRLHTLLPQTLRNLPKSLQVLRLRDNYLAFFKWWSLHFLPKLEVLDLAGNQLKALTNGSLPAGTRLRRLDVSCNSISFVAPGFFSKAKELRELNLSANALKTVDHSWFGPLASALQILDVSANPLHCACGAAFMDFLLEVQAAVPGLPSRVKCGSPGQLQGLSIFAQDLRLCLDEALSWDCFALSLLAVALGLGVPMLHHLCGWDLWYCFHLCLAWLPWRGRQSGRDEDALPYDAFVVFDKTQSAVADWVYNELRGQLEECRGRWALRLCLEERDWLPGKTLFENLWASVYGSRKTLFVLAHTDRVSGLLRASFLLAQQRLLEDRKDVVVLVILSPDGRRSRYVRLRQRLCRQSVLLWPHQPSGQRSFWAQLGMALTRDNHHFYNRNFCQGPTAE
# From the text: A. Primary Assay. The primary assay involved transfecting human embryonic kidney epithelial (HEK) cells with TLR9. More specifically, HEK293 […] cells (ATCC No. CRP-1573, American Type Culture Collection, Manassas, Va.) were transfected with pcDNA3.1D/V5-His-TOPO® plasmid (Invitrogen, Carlsbad, Calif.) encoding human TLR9 (directly inserted as a Tag polymerase-amplified PCR product) and firefly luciferase under the control of three NF-kB binding sites contained in the E-selectin-1 promoter, which was cloned into a pGL3-Enhancer Vector (Promega Corp, Madison, Wis.). Each compound was added to cells 30 min. before stimulation with Oligo CpG 2006, a synthetic phosphorothioate oligonucleotide (Hartmann et al., J Immunol. 164:1617-24 (2000)), with nucleotide sequence 5′-TCGTCGTTTTGTCGTTTTGTCGTT-3′ (SEQ ID NO:1). The cells were incubated overnight at 37° C. The luciferase substrate Steady-Glo® (Promega) was added to the wells, and luminescence was measured to determine the extent of TLR9-driven gene activation. The luminescence data was used to calculate an IC50 for each sample. The IC50 is defined as the concentration of compound that suppresses the luminescence to 50% of that observed in the absence of compound, in other words, with full stimulation.
# [4] = test system: human PBMC α-interferon response to Oligo CpG 2216; test: PBMC CpG 2216 assay (α-interferon ELISA); format: cell-based; details: Oligo CpG 2216, 72 hrs, read-out: PBMC CpG2216 IC50
# Method: (4) PBMC CpG 2216 Assay: A subset of compounds tested as described above were also assayed for suppression of human peripheral blood mononuclear cells (PBMC) α-interferon response to stimulation with Oligo CpG 2216, a synthetic oligo phosphorothioate/phosphodiester oligonucleotide (Vollmer et al. Eur J. Immunol. 34:251-62 (2004)), with nucleotide sequence 5′-ggG GGA CGA TCG TCg ggg gG-3′ (small letters indicate phosphorothioate linkages, all others are phosphodiester) (SEQ ID NO:3). Each compound was added to […] from healthy volunteer donors before addition of stimulatory oligonucleotide. Cells were stimulated in culture for 72 hrs and the supernatant was removed for ELISA analysis of α-interferon level was performed using a VeriKine™ Human IFN-Alpha ELISA kit (Pestka Biomedical Laboratories, N.J.).
Compound,IC50 [2],IC50 [3],inhibition in vivo at 20 mg/kg [1],IC50 [4],suppression of IL-6 (Table 3) [1]
CN(C)CCCOc1ccc(-c2nc3ccc(OCCCN(C)C)cc3o2)cc1 [Compound 2],48 nM,15.4 nM,,500 nM,
CN(C)[C@@H]1CCN(CCCOc2ccc(-c3nc4ccc(OCCCN5CC[C@@H](N(C)C)C5)cc4o3)cc2)C1 [Compound 16],8 nM,5.5 nM,50%,400 nM,
CN(C)CCN(C)CCCOc1ccc(-c2nc3ccc(OCCCN(C)CCN(C)C)cc3o2)cc1 [Compound 22],10 nM,8.7 nM,36%,,
c1cc(-c2nc3ccc(OCCCN4CCCC4)cc3o2)ccc1OCCCN1CCCC1 [Compound 23],18 nM,11.1 nM,91%,600 nM,
c1cc(-c2nc3ccc(OCCCN4CCC(N5CCCC5)CC4)cc3o2)ccc1OCCCN1CCC(N2CCCC2)CC1 [Compound 20],6 nM,12.5 nM,0%,700 nM,No suppression
CN(C)CCCN(C)CCCOc1ccc(-c2nc3ccc(OCCCN(C)CCCN(C)C)cc3o2)cc1 [Compound 27],4 nM,3.4 nM,30%,,
CCN(CC)CCN(C)CCCOc1ccc(-c2nc3ccc(OCCCN(C)CCN(CC)CC)cc3o2)cc1 [Compound 31],6 nM,7.2 nM,,200 nM,

# Continued, in another order:
IC50 [2],IC50 [3],Compound,inhibition in vivo at 20 mg/kg [1],IC50 [4],suppression of IL-6 (Table 3) [1]
3 nM,7.1 nM,c1cc(CN2CCOCC2)ccc1CNCCCOc1ccc(-c2nc3ccc(OCCCNCc4ccc(CN5CCOCC5)cc4)cc3o2)cc1 [Compound 13],40%,,
4 nM,5.6 nM,CN1CCCN(CCCOc2ccc(-c3nc4ccc(OCCCN5CCCN(C)CC5)cc4o3)cc2)CC1 [Compound 14],0%,,No suppression
4 nM,5.8 nM,CCN(CC)CCNCCCOc1ccc(-c2nc3ccc(OCCCNCCN(CC)CC)cc3o2)cc1 [Compound 12],,500 nM,
2 nM,4.8 nM,CN1CCN(c2ccc(CNCCCOc3ccc(-c4nc5ccc(OCCCNCc6ccc(N7CCN(C)CC7)cc6)cc5o4)cc3)cc2)CC1 [Compound 11],,600 nM,
25 nM,12.1 nM,c1cc(-c2nc3ccc(OCCCN4CCCCC4)cc3o2)ccc1OCCCN1CCCCC1 [Compound 30],93%,500 nM,
